Data on five compounds can be found in US12459985B2, “G-protein-coupled receptor internal sensors” (THE REGENTS OF THE UNIVERSITY OF CALIFORNIA, priority 2016, dated 2025).

In assay [1] the test system is Mu-opioid receptor. As to the kind of experiment: Opioid sensor (cpGFP in Loop3 of the Mu-opioid receptor) response in HEK293T cells. Type of assay: cell-based, human.
Assay [2] concerns the target Beta2AR with a cpGFP integrated into the third intracellular loop (Homo sapiens, UniProt P07550).
For assay [3], the target named is 5HT2A receptor (Homo sapiens, UniProt P28223, DEL264-288/DEL297-315/INS291[…]/INS295[…]/K293E/S316L). Kind of assay: 5HT2A receptor sensor with universal module 2, fluorescence response. It counts as cell-based. The following applies: universal module 2 in 5HT2A receptor.
Sequence of 5HT2A receptor (P28223 with tags, fused parts or gaps with the stated changes): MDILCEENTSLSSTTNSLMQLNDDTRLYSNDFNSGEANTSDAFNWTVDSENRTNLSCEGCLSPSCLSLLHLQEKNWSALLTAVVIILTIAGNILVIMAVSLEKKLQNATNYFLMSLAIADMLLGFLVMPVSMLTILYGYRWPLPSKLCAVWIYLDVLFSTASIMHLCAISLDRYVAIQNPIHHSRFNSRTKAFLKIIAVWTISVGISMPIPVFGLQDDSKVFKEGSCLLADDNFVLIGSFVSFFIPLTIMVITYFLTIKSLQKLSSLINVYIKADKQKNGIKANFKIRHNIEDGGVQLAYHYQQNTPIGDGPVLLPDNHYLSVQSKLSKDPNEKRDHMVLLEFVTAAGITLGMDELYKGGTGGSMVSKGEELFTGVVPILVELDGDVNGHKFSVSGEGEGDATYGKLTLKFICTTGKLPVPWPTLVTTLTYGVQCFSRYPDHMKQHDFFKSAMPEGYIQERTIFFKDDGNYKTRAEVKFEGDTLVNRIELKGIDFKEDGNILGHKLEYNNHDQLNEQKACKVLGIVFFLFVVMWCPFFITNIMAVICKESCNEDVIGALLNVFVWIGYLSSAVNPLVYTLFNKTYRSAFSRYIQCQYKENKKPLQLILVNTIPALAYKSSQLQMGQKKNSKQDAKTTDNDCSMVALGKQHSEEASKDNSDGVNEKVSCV
In assay [4] the target is T1, B2AR (Homo sapiens, UniProt P07550, C265Q/D251A/E249T/E27Q/F240D/F264D/G16R/G238K/G257K/INS236[…]/INS254[…]/K235L/K263H/N244L/Q243V/Q247F/Q250A/R253I/R259E/R260Y/S246E/S261N/S262N/V242M).
T1 construct: expressed in transfected cells
It counts as cell-based. To be noted: universal module 1 in B2AR; 10 μM.

For assay [5], the target named is B2AR (Homo sapiens, UniProt P07550, C265Q/D251A/E249T/E27Q/F240D/F264D/G16R/G238K/G257K/INS233[…]/INS254[…]/K232L/K235P/K263H/L230S/N244L/Q229L/Q231S/Q243V/Q247F/Q250A/R253I/R259E/R260Y/S236N/S246E/S261N/S262N/V242M). As to the kind of experiment: B2AR sensor with universal module 2, fluorescence response. To be noted: inserted into EAKR-deleted third intracellular loop residues-KEHK of B2AR. Type of assay: cell-based.

With `C[C@@H](NC(=O)[C@@H](N)Cc1ccc(O)cc1)C(=O)NCC(=O)N(C)[C@@H](Cc1ccccc1)C(=O)NCCO` [DAMGO], the “positive ΔF/F” value in assay [1] (10 μM) was […]. In addition, in assay [1] (HEK293T cell, drug/response curve, read-out: apparent Kd), the Kd turned out to be […].
On to `NCCc1ccc(O)c(O)c1` [Dopamine], for which, in assay [2] (50 μM, non-Beta2AR ligands), the “specific response of the sensor” value is “did not detect any specific response”.
As to `NCCc1c[nH]c2ccc(O)cc12` [Serotonin], the ΔF/F response in assay [3] is roughly 30%.
`NC[C@H](O)c1ccc(O)c(O)c1` [norepinephrine] showed a ΔF/F in assay [4] of 150%. This compound also yielded a τ½ON in assay [2] (time constant of association, saturating conditions (1 μM drug)) of 29.62 s. For the same compound, the τ½OFF in assay [2] (time constant of dissociation, saturating conditions (1 μM drug)) amounted to 106.91 s.
Regarding LSSLI-cpGFP-NHDQL [Universal module 2], the ΔF/F in assay [5] was 100%.
